Measurements reported in PubChem BioAssay (NCI).
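Five concentrations, 48 hours, 96-well plates. TGI denotes the concentration required for complete inhibition of growth.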

Key:
Experiment in all cases: inhibition of tumour cell growth, NCI panel, 48 h
CCRF-CEM leukemia = tested on: CCRF-CEM leukemia
COLO 205 colon = tested on: COLO 205 colon
DMS 114 small cell lung = tested on: DMS 114 small cell lung
HCC-2998 colon = tested on: HCC-2998 colon
HOP-18 NSCLC = tested on: HOP-18 NSCLC
KM20L2 colon = tested on: KM20L2 colon
M14 melanoma = tested on: M14 melanoma
NCI-H23 lung = tested on: NCI-H23 lung
SK-MEL-5 melanoma = tested on: SK-MEL-5 melanoma
SR leukemia = tested on: SR leukemia
SW-620 colon = tested on: SW-620 colon

## OCC[N+]12CCCN1CCC2
CCRF-CEM leukemia
  TGI: > 100 µM
COLO 205 colon
  TGI: > 100 µM
DMS 114 small cell lung
  TGI: > 100 µM
HCC-2998 colon
  TGI: > 100 µM
HOP-18 NSCLC
  TGI: > 100 µM
KM20L2 colon
  TGI: > 100 µM
M14 melanoma
  TGI: > 100 µM
NCI-H23 lung
  TGI: > 100 µM
SK-MEL-5 melanoma
  TGI: > 100 µM
SR leukemia
  TGI: > 100 µM
SW-620 colon
  TGI: > 100 µM

## O=C(N/C(=C\c1cccc([N+](=O)[O-])c1)c1nc2ccccc2[nH]1)c1ccccc1
CCRF-CEM leukemia
  TGI: > 100 µM
COLO 205 colon
  TGI: > 100 µM
DMS 114 small cell lung
  TGI: > 100 µM
HCC-2998 colon
  TGI: > 100 µM
KM20L2 colon
  TGI: > 100 µM
M14 melanoma
  TGI: > 100 µM
NCI-H23 lung
  TGI: > 100 µM
SK-MEL-5 melanoma
  TGI: > 100 µM
SR leukemia
  TGI: > 100 µM
SW-620 colon
  TGI: > 100 µM

## CC(C)(C)c1cc(CCCCCCCC2(CCCCCCCc3cc(C(C)(C)C)cc(C(C)(C)C)c3)OC(COCCOCCCCCC#N)C(COCCOCCCCCC#N)O2)cc(C(C)(C)C)c1 (configuration not stated)
CCRF-CEM leukemia
  TGI: > 100 µM
COLO 205 colon
  TGI: > 100 µM
DMS 114 small cell lung
  TGI: > 100 µM
HCC-2998 colon
  TGI: > 100 µM
HOP-18 NSCLC
  TGI: > 100 µM
KM20L2 colon
  TGI: > 100 µM
M14 melanoma
  TGI: > 100 µM
NCI-H23 lung
  TGI: > 100 µM
SK-MEL-5 melanoma
  TGI: > 100 µM
SW-620 colon
  TGI: > 100 µM

## CCOc1cn(C2OC(CO)C(O)C2O)c(=O)[nH]c1=O (configuration not stated)
CCRF-CEM leukemia
  TGI: > 100 µM
COLO 205 colon
  TGI: > 100 µM
DMS 114 small cell lung
  TGI: > 100 µM
HCC-2998 colon
  TGI: > 100 µM
HOP-18 NSCLC
  TGI: > 100 µM
KM20L2 colon
  TGI: > 100 µM
M14 melanoma
  TGI: > 100 µM
NCI-H23 lung
  TGI: > 100 µM
SK-MEL-5 melanoma
  TGI: > 100 µM
SW-620 colon
  TGI: 89.5 µM

## NS(=O)(=O)c1ccc(Nc2c3ccccc3nc3c(C(=O)N4CCN(CCO)CC4)cccc23)cc1
CCRF-CEM leukemia
  TGI: > 100 µM
COLO 205 colon
  TGI: > 100 µM
DMS 114 small cell lung
  TGI: > 100 µM
HCC-2998 colon
  TGI: > 100 µM
HOP-18 NSCLC
  TGI: > 100 µM
KM20L2 colon
  TGI: > 100 µM
M14 melanoma
  TGI: > 100 µM
NCI-H23 lung
  TGI: > 100 µM
SK-MEL-5 melanoma
  TGI: > 100 µM
SR leukemia
  TGI: > 100 µM
SW-620 colon
  TGI: > 100 µM

## COc1ccc(C(=O)c2c3cc(OC)c(OC)c(OC)c3cc[n+]2C)cc1
CCRF-CEM leukemia
  TGI: 71.2 µM
DMS 114 small cell lung
  TGI: 75.7 µM
HCC-2998 colon
  TGI: 98.8 µM
HOP-18 NSCLC
  TGI: 80.6 µM
KM20L2 colon
  TGI: > 100 µM
M14 melanoma
  TGI: > 100 µM
NCI-H23 lung
  TGI: 66.5 µM
SK-MEL-5 melanoma
  TGI: 35.1 µM
SR leukemia
  TGI: > 100 µM
SW-620 colon
  TGI: > 100 µM

## Cn1c2c(c3ccccc31)CCN(CCCCN1CCN(c3ccccc3)CC1)C2=O
CCRF-CEM leukemia
  TGI: > 79.9 µM
COLO 205 colon
  TGI: 26.2 µM
DMS 114 small cell lung
  TGI: > 79.1 µM
HCC-2998 colon
  TGI: 31.7 µM
HOP-18 NSCLC
  TGI: > 31.6 µM
KM20L2 colon
  TGI: 33.6 µM
M14 melanoma
  TGI: 16.9 µM
NCI-H23 lung
  TGI: > 76.8 µM
SK-MEL-5 melanoma
  TGI: 22.9 µM
SR leukemia
  TGI: > 100 µM
SW-620 colon
  TGI: > 56.2 µM

## CC(=O)O[C@H]1CCN2C(=O)C=CC(OCc3ccccc3)C12 (some centres not stated)
CCRF-CEM leukemia
  TGI: > 100 µM
COLO 205 colon
  TGI: > 100 µM
DMS 114 small cell lung
  TGI: > 100 µM
HCC-2998 colon
  TGI: > 100 µM
HOP-18 NSCLC
  TGI: > 100 µM
KM20L2 colon
  TGI: > 100 µM
M14 melanoma
  TGI: > 100 µM
NCI-H23 lung
  TGI: > 100 µM
SK-MEL-5 melanoma
  TGI: > 100 µM
SW-620 colon
  TGI: > 100 µM

## CC(C)(C)C(=O)Nc1cccc2oc(-c3ccccc3)cc12
CCRF-CEM leukemia
  TGI: > 100 µM
COLO 205 colon
  TGI: > 100 µM
DMS 114 small cell lung
  TGI: > 100 µM
HCC-2998 colon
  TGI: > 100 µM
HOP-18 NSCLC
  TGI: > 100 µM
KM20L2 colon
  TGI: > 100 µM
M14 melanoma
  TGI: > 100 µM
NCI-H23 lung
  TGI: > 100 µM
SR leukemia
  TGI: > 100 µM
SW-620 colon
  TGI: > 100 µM

## Cc1ccc(/C=C(\NC(=O)c2ccccc2)c2nc3ccccc3[nH]2)cc1
COLO 205 colon
  TGI: > 100 µM
DMS 114 small cell lung
  TGI: > 100 µM
HCC-2998 colon
  TGI: > 100 µM
HOP-18 NSCLC
  TGI: > 100 µM
KM20L2 colon
  TGI: > 100 µM
M14 melanoma
  TGI: > 100 µM
NCI-H23 lung
  TGI: > 100 µM
SK-MEL-5 melanoma
  TGI: 36.7 µM
SR leukemia
  TGI: > 100 µM
SW-620 colon
  TGI: > 100 µM

## CSc1nc2nn(Cc3ccccc3)cc2c(=O)[nH]1
CCRF-CEM leukemia
  TGI: > 100 µM
COLO 205 colon
  TGI: > 100 µM
DMS 114 small cell lung
  TGI: > 100 µM
HCC-2998 colon
  TGI: > 100 µM
HOP-18 NSCLC
  TGI: > 100 µM
KM20L2 colon
  TGI: > 100 µM
M14 melanoma
  TGI: > 100 µM
NCI-H23 lung
  TGI: > 100 µM
SK-MEL-5 melanoma
  TGI: > 100 µM
SR leukemia
  TGI: > 100 µM
SW-620 colon
  TGI: > 100 µM

## CCN(CC)CC(C)C(=O)/C=C/c1ccc(C)cc1 (configuration not stated)
CCRF-CEM leukemia
  TGI: 16.1 µM
COLO 205 colon
  TGI: 3.02 µM
DMS 114 small cell lung
  TGI: 3.2 µM
HCC-2998 colon
  TGI: 9.28 µM
HOP-18 NSCLC
  TGI: 22.3 µM
KM20L2 colon
  TGI: 21.6 µM
M14 melanoma
  TGI: 4.85 µM
NCI-H23 lung
  TGI: 19.9 µM
SK-MEL-5 melanoma
  TGI: 17 µM
SR leukemia
  TGI: 8.19 µM
SW-620 colon
  TGI: 2.96 µM

## NS(=O)(=O)c1ccc(NC(=O)Cc2nc3ccccc3s2)cc1
CCRF-CEM leukemia
  TGI: 47.3 µM
COLO 205 colon
  TGI: 34 µM
DMS 114 small cell lung
  TGI: 29.2 µM
HCC-2998 colon
  TGI: 35.8 µM
HOP-18 NSCLC
  TGI: 34.8 µM
KM20L2 colon
  TGI: 33.9 µM
M14 melanoma
  TGI: 29.4 µM
NCI-H23 lung
  TGI: 29.5 µM
SK-MEL-5 melanoma
  TGI: 34.5 µM
SR leukemia
  TGI: 71 µM
SW-620 colon
  TGI: 31.7 µM

## O=C(/C=C/c1ccccc1O)c1ccc([N+](=O)[O-])cc1
CCRF-CEM leukemia
  TGI: 66.1 µM
COLO 205 colon
  TGI: 27.4 µM
DMS 114 small cell lung
  TGI: 24.7 µM
HCC-2998 colon
  TGI: 30.1 µM
HOP-18 NSCLC
  TGI: > 100 µM
KM20L2 colon
  TGI: 39.7 µM
M14 melanoma
  TGI: 52.2 µM
NCI-H23 lung
  TGI: 25.4 µM
SK-MEL-5 melanoma
  TGI: 49.8 µM
SR leukemia
  TGI: 63.6 µM
SW-620 colon
  TGI: 31.3 µM

## Cn1c(=O)nc2n(-c3ccc(Cl)cc3)c3cc(Cl)ccc3nc-2c1=O
CCRF-CEM leukemia
  TGI: 33.2 µM
COLO 205 colon
  TGI: 5.14 µM
DMS 114 small cell lung
  TGI: 3.8 µM
HCC-2998 colon
  TGI: 14.1 µM
HOP-18 NSCLC
  TGI: 28.3 µM
KM20L2 colon
  TGI: 35.7 µM
M14 melanoma
  TGI: 4.21 µM
NCI-H23 lung
  TGI: 6.06 µM
SK-MEL-5 melanoma
  TGI: 3.07 µM
SR leukemia
  TGI: 29.8 µM
SW-620 colon
  TGI: 4.22 µM

## CSc1ccc2c(cc1=O)[C@@H](NC(=O)c1ccc(Cl)cc1)CCc1cc(O)c(O)c(O)c1-2
CCRF-CEM leukemia
  TGI: > 100 µM
COLO 205 colon
  TGI: > 100 µM
DMS 114 small cell lung
  TGI: > 100 µM
HCC-2998 colon
  TGI: > 100 µM
HOP-18 NSCLC
  TGI: > 100 µM
KM20L2 colon
  TGI: > 100 µM
M14 melanoma
  TGI: > 100 µM
NCI-H23 lung
  TGI: > 100 µM
SK-MEL-5 melanoma
  TGI: > 100 µM
SW-620 colon
  TGI: 37.1 µM

## C[C@@H](NS(=O)(=O)c1ccc(NC(=O)c2ccccc2)cc1)C(=O)O
CCRF-CEM leukemia
  TGI: > 100 µM
COLO 205 colon
  TGI: > 100 µM
HCC-2998 colon
  TGI: > 100 µM
HOP-18 NSCLC
  TGI: > 100 µM
KM20L2 colon
  TGI: > 100 µM
M14 melanoma
  TGI: > 100 µM
NCI-H23 lung
  TGI: > 100 µM
SK-MEL-5 melanoma
  TGI: > 100 µM
SW-620 colon
  TGI: > 100 µM

## CC1=NN(C(=O)Nc2ccc(Cl)cc2)C(=O)C2CCC(=O)N12 (configuration not stated)
CCRF-CEM leukemia
  TGI: > 100 µM
COLO 205 colon
  TGI: > 100 µM
DMS 114 small cell lung
  TGI: > 100 µM
HCC-2998 colon
  TGI: > 100 µM
KM20L2 colon
  TGI: > 100 µM
M14 melanoma
  TGI: > 100 µM
NCI-H23 lung
  TGI: > 100 µM
SK-MEL-5 melanoma
  TGI: > 100 µM
SR leukemia
  TGI: > 100 µM
SW-620 colon
  TGI: > 100 µM

## COc1cc2oc(-c3ccccc3)cc(=O)c2c(O)c1C
CCRF-CEM leukemia
  TGI: > 100 µM
COLO 205 colon
  TGI: > 100 µM
DMS 114 small cell lung
  TGI: > 100 µM
HCC-2998 colon
  TGI: > 100 µM
KM20L2 colon
  TGI: > 100 µM
M14 melanoma
  TGI: > 100 µM
NCI-H23 lung
  TGI: > 100 µM
SK-MEL-5 melanoma
  TGI: > 100 µM
SR leukemia
  TGI: > 100 µM
SW-620 colon
  TGI: > 100 µM
